The assay deals with T1, sodium channel (voltage-gated, skeletal muscle).
T1 construct: gene scn4a; native channel in single semitendinosus muscle fibers
The assay can be described thus: three vaseline gap voltage clamp of Na+ current, phasic ([…] Hz use-dependent) block. The assay is classed as cell-based. To be noted: read-out: Phasic block IC 50.

In the case of `Cc1cccc(C)c1OCC(C)N` (racemic) [Mexiletine, 1-(2,6-dimethylphenoxy)-2-propanamine], the IC50 came out at 31 µM. To `CC(N)COc1c2cccc1Cc1cccc(c1OCC(C)N)Cc1cccc(c1OCC(C)N)Cc1cccc(c1OCC(C)N)C2` (centres unmarked) [compound 4, Calixmexitil] belongs 3 µM.

These data come from article PMC6934949, “Calixmexitil: Calixarene-based Cluster of Mexiletine with Amplified Anti-myotonic Activity as A Novel Use-dependent Sodium Channel Blocker” (Iranian Journal of Pharmaceutical Research : IJPR, 2019).
